Assay results from patent publication EP1785417A2, “Novel non-psychotropic cannabinoids” (priority 2000, dated 2001).
Like-named read-outs stand apart in the source and are kept apart here.

Key:
[1] = test system: NMDA receptor; assay: Radioligand binding: displacement of [3H]MK-801 from rat forebrain membranes; settings: for NMDA receptor binding / affinity: MK-801 binding to membranes
Source text: (§1) Evaluation of the therapeutic effects of the novel PRS-211 compounds has now been carried out in a series of experimental systems to support the utility of these drugs as neuroprotectants, anti-inflammatory agents and anti-oxidative agents. These effects have been evaluated both in vitro and in vivo, and have been corroborated utilizing the following systems: • (a) Binding to the NMDA receptor linked channel: Non competitive antagonists of NMDA, the primary example of which is the compound MK-801, bind to a site within the NMDA receptor channel thus preventing the activation of the receptor-channel complex and the consequent neurotoxicity. The ability of various compounds to compete with the binding of tritium labeled MK-801 to brain membranes is considered a measure of their potency as NMDA non-competitive antagonists. • (b) Inhibition of prostaglandin production: The inhibitory effect of the new derivatives of Dexanabinol on prostaglandin synthesis is evaluated in macrophage cell cultures following LPS exposure to induce the inflammatory response. These assays are an indication of the anti-inflammatory activity of the individual analogs. • (c) Inhibition of Tumor Necrosis Factor Alpha: Specific aspects of the inflammatory response cascade are mediated by the cytokine TNFα. Inhibition of TNFα production and/or inhibition of TNFα release by the new analogs are assayed in macrophage cell cultures activated with LPS. This serves as another indication of the general anti-inflammatory potential of the novel compounds. • (d) Nitric Oxide Assay: As one aspect of the anti-oxidative potential of the novel analogs they were tested for their ability to inhibit the enzyme nitric oxide synthase (NOS). This assay can also serve as another indication of the anti-inflammatory cascade, as well as the anti-oxidative mechanisms. • (e) Ear Edema model: The anti-inflammatory activity of the new analogs is screened using an ear edema model in mice. This test system utilizes Croton oil or Arachidonic acid as inflammation inducers. The ability of the test compounds to prevent or diminish the inflammatory response to these stimulants is indicative of their systemic anti-inflammatory capability. • (f) Improved clinical outcome after closed head injury in rats: Severe head injury is associated with high mortality and severe neurological impairment. Animals subjected to head trauma in a controlled fashion serve as models in which to test drugs of therapeutic potential. Test compounds can be evaluated both for improved clinical outcome and for reduction of edema induced by closed head injury. The ability of compounds to reduce the severity of neurological symptoms and to reduce brain edema is considered a measure of their potency in reducing brain damage. • (g) Transient Middle cerebral artery occlusion (MCAo): The middle cerebral artery is the cerebral blood vessel most susceptible to stroke in humans. In animals, coagulation, permanent ligation or permanent placement of an occluding thread in the artery produces a permanent focal stroke affecting the MCA territory. Transient ligation or occlusion results in transient focal stroke. Both transient and permanent focal strokes result in varying degrees of edema and infarction in the affected brain regions. The ability of compounds to reduce the volumes of edema and infarction is considered a measure of their potential as anti-stroke treatment. • (h) Optic Nerve Crush: Application of mechanical pressure to the rat optical nerve results in crush injury of the axons, which is accompanied by immediate changes in oxidative metabolism and delayed axonal death and blindness. […]

[2] = test system: TNFα; assay: Inhibition of TNFα in LPS-stimulated macrophage cell cultures (ELISA); assay type: cell-based; settings: LPS-stimulated macrophages
Source text: as §1

[3] = test system: Nitric Oxide Synthase (NOS); assay: Inhibition of nitric oxide synthase (nitrite fluorimetric assay, LPS-stimulated macrophage cultures); assay type: cell-based; settings: LPS-stimulated macrophages
Source text: as §1

[4] = test system: PGE2; assay: Inhibition of prostaglandin synthesis (PGE2) in LPS-stimulated macrophage cell cultures; assay type: cell-based; settings: LPS-stimulated macrophages
Source text: as §1

[5] = test system: transient middle cerebral artery occlusion in rats; assay: Transient middle cerebral artery occlusion (MCAo), infarct size evaluation; assay type: in vivo; settings: for Mortality rate: 5 mg/kg IV at 2+0 hours
Source text: Experimental design. The design was a randomized one, performed in a masked fashion as to whether drug or vehicle was being given, and an attempt was made to generate approximately equal numbers of drug- and vehicle-treated animals.
• a. Male rats (8 /treatment group) 320-380 gr. (Harlan Israel). • b. Halothane (Rhone Poulenc France) • c. Pentobarbitone (Pental Veterinary, CTS Israel). • d. Poly - L - Lysine (Sigma, USA). • e. Silk suture material 3-0 and 4-0. • f. Nylon (Polyamid) suture material 3-0. Four cm pieces were cut and positioned in a solution of 1% Poly - L - Lysine for 1 minute and dried in an oven (60 ° C) for 60 minutes. The tip of each piece was rounded under a flame. • g. Saline (Teva Medical). • h. Blank cremophor ethanol cosolvent (Pharmos). • i. Dexanabinol in cremophor ethanol cosolvent 50 mg/ml. (Both Dexanabinol and its vehicle were diluted in saline prior to drug administration. • j. Analogs PRS-211,092, PRS-211,095, PRS-211,128 PRS-211,132 and PRS-211,220 in cremophor ethanol cosolvent, 50 mg/ml. • k. The analogs were diluted in saline prior to drug administration.
• a. Surgical details of the MCAo method used for testing dexanabinol analogs, are presented in Belayev, et al., (Belayev, Busto, Weizhao, and Ginsberg, Stroke 26:2313-2319, 1995) which is incorporated herein in its entirety by reference. • b. Two hours after the start of MCAO, the animals were reanesthetized with halothane, the neck wound was re-opened and the nylon thread pulled out of the Internal carotid artery (ICA). The skin wound was then closed with 3-0 silk suture material and the animals allowed to recover from the anesthesia. • c. Three sets of animals were tested. In the first test immediately (2+0 hours) before thread removal the animals were injected IV with either analogs PRS-211,095, PRS-211,128, PRS-211,132, or Dexanabinol (PRS-211,007) each at a dosage of 5 mg/kg. One group of animals was treated with 5ml/kg vehicle alone. In another group, the animals subjected to "sham" operation, the suture was passed into the ICA, as described above, but immediately withdrawn. In the second set dexanabinol, PRS-211,092, PRS-211,095 and PRS-211,220 were used, at 2+0 hours. In the third set dexanabinol, PRS-211,092, PRS-211,095 and PRS-211,220 were administered 1 hour after thread removal (2+1 hours). Laser Doppler Flow (LDF) determined the success of MCAo - a drop of more then 50% in cerebral blood flow was considered as a sign of successful MCAo. Although LDF was a helpful corroborative sign, clinical outcome remained the final inclusion/exclusion criterion, since, with the exception of the PRS-211,220 staircase study, LDF was introduced only after initiation of the study.
A detailed investigation of neurological performance was carried out on the first, third and the 7th day after the MCAo. Two parameters were examined: posture and the flexion reflex (based on Nokon and Chuang, NeuroReport 9, 1998: 2081-2084). Animals were scored according to their performance:
One week after the ischemic insult, animals were euthanized with pentobarbitone 100 mg/kg IP. The animals were perfused through the heart with heparinized 4% formaldehyde solution in PBS (pH 7.4). Brains were then removed, and kept in the same solution before preparation for histological evaluation of the brain infarct volume.

[6] = test system: ear edema model in mice; assay: Ear edema model; assay type: in vivo; settings: Mus musculus, Croton oil (CO) as inducer, IP
Source text: as §1

[7] = displacement of [3H]MK-801, rat forebrain membranes, read-out: NMDA BINDING IC50
[8] = [3H]MK-801 binding, text to Figure 2, read-out: mean IC50

CCCCCCC(C)(C)c1cc(O)c2c(c1)OC(C)(C)[C@H]1CC=C(CN3CCC(C)CC3)C[C@H]21 (single isomer, unassigned) [211,251-000]
NMDA receptor binding / affinity [1]: do not exhibit substantial NMDA receptor binding | IC50 [1, 7]: > 100 µM | inhibition at 10 µM [2]: 0% | inhibition at 10 µM [3]: 37% | inhibition at 10 µM [4]: 91%

CCCCCCC(C)(C)c1cc(O)c2c(c1)OC(C)(C)[C@H]1CC=C(CN3CCC(N4CCCCC4)CC3)C[C@H]21 (single isomer, unassigned) [211,257-000]
NMDA receptor binding / affinity [1]: do not exhibit substantial NMDA receptor binding | IC50 [1, 7]: > 100 µM | inhibition at 10 µM [2]: 10% | inhibition at 10 µM [3]: 39% | inhibition at 10 µM [4]: 88%

CCCCCCC(C)(C)c1cc(O)c2c(c1)OC(C)(C)[C@H]1CC=C(CN3CCCC3)C[C@H]21 (stereo in doubt) [211,128-000]
NMDA receptor binding / affinity [1]: no detectable affinity | IC50 [1, 8]: > 20 µM | IC50 [1, 7]: > 20 µM | inhibition at 10 µM [2]: 48% | inhibition at 10 µM [3]: 27% | function, reduction of mortality and brain morphometry [5]: inactive | Mortality rate [5]: around 25% | inhibition at 10 µM [4]: 84% | ED50 [6]: 23 µmol/kg

CCCCCCC(C)(C)c1cc(O)c2c(c1)OC(C)(C)[C@H]1CC=C(CN3CCCCC3)C[C@H]21 (stereo in doubt) [211,159-000]
IC50 [1, 7]: > 20 µM | inhibition at 10 µM [2]: 33% | inhibition at 10 µM [3]: 27% | inhibition at 10 µM [4]: 87%

CCCCCCC(C)(C)c1cc(O)c2c(c1)OC(C)(C)[C@H]1CC=C(CC#N)C[C@H]21 [211,006-000]
IC50 [1, 7]: 8 µM | inhibition at 10 µM [2]: 46% | inhibition at 10 µM [3]: 19% | inhibition at 10 µM [4]: 41% | ED50 [6]: 104 µmol/kg

CCCCCCC(C)(C)c1cc(O)c2c(c1)OC(C)(C)[C@H]1CC=C(C[S+](C)[O-])C[C@H]21 (stereo partly drawn) [211,041-000]
IC50 [1, 7]: 6 µM | inhibition at 10 µM [2]: 23% | inhibition at 10 µM [3]: 72% | inhibition at 10 µM [4]: 56% | ED50 [6]: 39 µmol/kg

CCCCCCC(C)(C)c1cc(O)c2c(c1)OC(C)(C)[C@H]1CC=C(CNC(C)=O)C[C@H]21 [211,044-000]
IC50 [1, 7]: 6 µM | inhibition at 10 µM [2]: 0% | inhibition at 10 µM [4]: 24%

CC(C)(C)c1cc(O)c2c(c1)OC(C)(C)[C@H]1CC=C(CO)C[C@H]21 [211,047-000]
IC50 [1, 7]: 100 µM | inhibition at 10 µM [2]: 0% | inhibition at 10 µM [4]: 28%

CCCCCCC(C)(C)c1cc(O)c2c(c1)OC(C)(C)[C@H]1CC=C(Cn3cncn3)C[C@H]21 [211,102-000]
IC50 [1, 7]: 2.5 µM

CCCCCCC(C)(C)c1cc(O)c2c(c1)OC(C)(C)[C@H]1CC=C(Cn3cnnc3)C[C@H]21 [211,103-000]
IC50 [1, 7]: 3 µM

CCCCCCC(C)(C)c1cc(O)c2c(c1)OC(C)(C)[C@H]1CC=C(Cc3cccs3)C[C@H]21 [211,118-000]
IC50 [1, 7]: 32 µM

CCCCCCC(C)(C)c1cc(O)c2c(c1)OC(C)(C)[C@H]1CC=C(Cc3ccccc3)C[C@H]21 [211,119-000]
IC50 [1, 7]: 62 µM | inhibition at 10 µM [4]: 14%

CCCCCCC(C)(C)c1cc(O)c2c(c1)OC(C)(C)[C@H]1CC=C(CN3CCOCC3)C[C@H]21 [211,132-000]
IC50 [1, 8]: 4.5 µM | IC50 [1, 7]: 4.5 µM | inhibition at 10 µM [2]: 21% | inhibition at 10 µM [3]: 40% | Mortality rate [5]: around 25% | inhibition at 10 µM [4]: 61% | ED50 [6]: 70 µmol/kg

CCCCCCC(C)(C)c1cc(O)c2c(c1)OC(C)(C)[C@H]1CC=C(CN3CCNCC3)C[C@H]21 [211,133-000]
IC50 [1, 7]: > 100 µM

CCCCCCC(C)(C)c1cc(O)c2c(c1)OC(C)(C)[C@H]1CC=C(CN3CCNC(C)C3)C[C@H]21 (stereo partly drawn) [211,134-000]
IC50 [1, 7]: > 100 µM

CCCCCCC(C)(C)c1cc(O)c2c(c1)OC(C)(C)[C@H]1CC=C(CN3CC=CCC3)C[C@H]21 [211,145-000]
IC50 [1, 7]: 13 µM | inhibition at 10 µM [2]: 15% | inhibition at 10 µM [3]: 60% | inhibition at 10 µM [4]: 63%

CCCCCCC(C)(C)c1cc(O)c2c(c1)OC(C)(C)[C@H]1CC=C(CN3CCN=C3SC)C[C@H]21 [211,204-000]
IC50 [1, 7]: 10 µM | inhibition at 10 µM [2]: 28% | inhibition at 10 µM [3]: 85% | reduction of infarct size ([5]; IV, one week after the ischemic insult): 50% | inhibition at 10 µM [4]: 83% | ED50 [6]: 34 µmol/kg

CCCCCCC(C)(C)c1cc(O)c2c(c1)OC(C)(C)[C@H]1CC=C(COCC(O)CO)C[C@H]21 (stereo partly drawn) [211,211-000]
IC50 [1, 7]: 4.6 µM | inhibition at 10 µM [2]: 18% | inhibition at 10 µM [3]: 0% | inhibition at 10 µM [4]: 83%

CCCCCCC(C)(C)c1cc(O)c2c(c1)OC(C)(C)[C@H]1CC=C(CN3CC=CC3)C[C@H]21 [211,212-000]
IC50 [1, 7]: 7.5 µM | inhibition at 10 µM [2]: 14% | inhibition at 10 µM [3]: 0% | inhibition at 10 µM [4]: 96%

CCCCCCC(C)(C)c1cc(O)c2c(c1)OC(C)(C)[C@H]1CC=C(CN3CCC(N4CCCC4)CC3)C[C@H]21 [211,253-000]
NMDA receptor binding / affinity [1]: do not exhibit substantial NMDA receptor binding | IC50 [1, 7]: > 100 µM | inhibition at 10 µM [2]: 0% | inhibition at 10 µM [3]: 27% | inhibition at 10 µM [4]: 92%

CCCCCCC(C)(C)c1cc(O)c2c(c1)OC(C)(C)[C@H]1CC=C(CN(Cc3ccccc3)c3ccccc3)C[C@H]21 [211,255-000]
NMDA receptor binding / affinity [1]: do not exhibit substantial NMDA receptor binding | IC50 [1, 7]: > 100 µM | inhibition at 10 µM [2]: 0% | inhibition at 10 µM [3]: 7% | inhibition at 10 µM [4]: 94%
